Data on 13 compounds can be found in ChEMBL document CHEMBL5113414, “New TRPM8 blockers exert anticancer activity over castration-resistant prostate cancer models” (Eur J Med Chem, 2022).

Molecules are shown by their SMILES. Activity calls are given as the source filed them. No cut-off for these calls is given here.

Experiment [1] concerns the target T1, Transient receptor potential cation channel subfamily M member 8 (Rattus norvegicus, UniProt Q8R455). Description: Antagonist activity at rat TRPM8 channel transfected in HEK293 cells assessed as inhibition of calcium currents by Fluo-4 NW dye based fluorimetric assay. In kind it is cell-based.
Experiment [2] deals with LNCaP. Description: Inhibition of R1881-induced cell spheroid size of human LNCaP cells at 1 uM with medium replacement for every 3 days incubated for 17 days by phase contrast microscopy. Type of experiment: functional, cell-based. Conditions: time 17.0 day.
Experiment [3] has as its system CWR22R. Briefly: Inhibition of R1881-induced DNA synthesis in human 22Rv1 cells at 1 to 10 uM incubated for 18 hrs by BrdU incorporation assay. In kind it is functional, cell-based. Conditions: dose 1-10 µM.
Experiment [4] deals with PNT2. Description: Inhibition of DNA synthesis in human PNT2 cells at 0.01 to 10 uM incubated for 18 hrs by BrdU incorporation assay. Type of experiment: functional, cell-based. Conditions: dose 0.01-10 µM.
The test system of a further experiment is PC-3. Briefly: Inhibition of DNA synthesis in human PC-3 cells at 0.01 to 10 uM incubated for 18 hrs by BrdU incorporation assay. Type of experiment: functional, cell-based. Conditions: dose 0.01-10 µM.
Experiment [5] addresses T1, Transient receptor potential cation channel subfamily M member 8. Description: Antagonist activity at rat TRPM8 channel transfected in HEK293 cells assessed as inhibition of menthol-induced calcium currents at -60 mV measured for 90 secs by whole cell patch clamp method. In kind it is cell-based.
The subject of experiment [6] is PNT2. Description: Inhibition of R1881-induced DNA synthesis in human PNT2 cells at 10 uM incubated for 18 hrs by BrdU incorporation assay. In kind it is functional, cell-based.
Experiment [7] deals with Transient receptor potential cation channel subfamily M member 8 (Rattus norvegicus) (UniProt Q8R455). Briefly: Inhibition of rat TRPM8 channel transfected in HEK293 cells assessed as inhibition of menthol-induced calcium currents at 0.01 to 10 uM at -60 mV measured for 90 secs by whole cell patch clamp method. Conditions: dose 0.01-10 µM, time 90.0 sec, DDE = dose-dependent effect. Type of experiment: cell-based.

Experiment [8] concerns LNCaP. Description: Inhibition of R1881-induced DNA synthesis in human LNCaP cells at 0.01 to 10 uM incubated for 18 hrs by BrdU incorporation assay. Type of experiment: functional, cell-based. Conditions: dose 0.01-10 µM.
Experiment [9] has as its system LNCaP C4-2B. Briefly: Inhibition of androgen-resistant human LNCaP C4-2B cells at 1 uM incubated for 18 hrs by BrdU incorporation assay. Type of experiment: functional, cell-based.
For experiment [10], the system named is LNCaP C4-2B. Description: Inhibition of androgen-resistant human LNCaP C4-2B cells at 0.1 uM incubated for 18 hrs by BrdU incorporation assay. Type of experiment: functional, cell-based.
The test system of experiment [11] is CWR22R. Description: Inhibition of R1881-induced cell spheroid size of human 22Rv1 cells at 1 uM with medium replacement for every 3 days incubated for 17 days by phase contrast microscopy. In kind it is functional, cell-based. Conditions: time 17.0 day.
The subject of experiment [12] is PNT2. Description: Inhibition of R1881-induced DNA synthesis in human PNT2 cells at 1 uM incubated for 18 hrs by BrdU incorporation assay. Type of experiment: functional, cell-based.

Sequence of Transient receptor potential cation channel subfamily M member 8 (Rattus norvegicus) (Q8R455 whole entry, looked up): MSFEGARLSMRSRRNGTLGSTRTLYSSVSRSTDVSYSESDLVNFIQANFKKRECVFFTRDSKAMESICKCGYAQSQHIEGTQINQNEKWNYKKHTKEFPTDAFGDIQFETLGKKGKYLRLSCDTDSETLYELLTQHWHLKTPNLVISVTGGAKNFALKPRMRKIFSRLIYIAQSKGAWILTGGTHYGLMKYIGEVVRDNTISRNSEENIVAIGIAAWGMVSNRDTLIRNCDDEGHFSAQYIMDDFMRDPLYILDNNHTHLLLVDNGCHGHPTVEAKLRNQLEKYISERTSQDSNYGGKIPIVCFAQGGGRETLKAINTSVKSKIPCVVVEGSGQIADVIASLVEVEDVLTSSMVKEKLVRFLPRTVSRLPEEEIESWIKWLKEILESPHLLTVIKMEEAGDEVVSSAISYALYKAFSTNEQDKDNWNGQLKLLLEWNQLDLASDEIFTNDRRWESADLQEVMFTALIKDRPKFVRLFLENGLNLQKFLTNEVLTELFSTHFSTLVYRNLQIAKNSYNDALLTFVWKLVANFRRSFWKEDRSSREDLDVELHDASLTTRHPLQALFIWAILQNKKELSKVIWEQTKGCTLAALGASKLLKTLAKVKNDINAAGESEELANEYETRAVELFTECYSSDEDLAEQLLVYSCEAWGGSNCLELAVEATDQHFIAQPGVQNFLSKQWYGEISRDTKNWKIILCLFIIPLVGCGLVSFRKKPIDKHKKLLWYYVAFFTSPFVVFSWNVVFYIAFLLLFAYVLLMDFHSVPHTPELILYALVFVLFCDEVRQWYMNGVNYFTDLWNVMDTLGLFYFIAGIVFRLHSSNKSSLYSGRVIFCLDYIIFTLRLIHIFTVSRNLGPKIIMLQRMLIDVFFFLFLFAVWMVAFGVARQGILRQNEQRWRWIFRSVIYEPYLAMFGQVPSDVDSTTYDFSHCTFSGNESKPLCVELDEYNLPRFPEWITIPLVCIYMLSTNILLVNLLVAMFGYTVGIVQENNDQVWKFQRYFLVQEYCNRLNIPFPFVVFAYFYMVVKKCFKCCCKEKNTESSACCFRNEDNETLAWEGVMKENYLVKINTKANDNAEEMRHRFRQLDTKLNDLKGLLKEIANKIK
T1 sequence (Q8R455 whole entry): as the sequence (Q8R455 whole entry, looked up) above

For `O=C1[C@@H]2Cc3cc(O)c(O)cc3[C@@H](c3ccc(F)cc3)N2C(=O)N1c1cccc(C(F)(F)F)c1`, the concentration for half-maximal inhibition (IC50) in [1] was 1.2 µM.
On the same count and under the same terms, the value for `O=C1[C@H]2Cc3cc(O)c(O)cc3[C@H](c3ccc(F)cc3)N2C(=O)N1Cc1ccc(F)cc1` was 2.2 µM.
`COC(=O)[C@H](Cc1ccc([N+](=O)[O-])cc1)N(Cc1ccccc1)Cc1ccccc1`: the inhibition result in the experiment on LNCaP [2], in the experiment on CWR22R [3], with PNT2 [4], in the experiment with PC-3, with PNT2 [6] and in the experiment on LNCaP [8] was “Active” each time. Further, the inhibition result in the experiment on LNCaP C4-2B [9], in the experiment with LNCaP C4-2B [10] and in the experiment on CWR22R [11] was “Active” in each case. The 50% inhibitory concentration (IC50) in experiment [5] came out at 0.06 µM; in experiment [1] it was 0.11 µM. Besides, the inhibition result in [7] is “Dde”.
`COC(=O)[C@H](Cc1ccccc1)N(Cc1ccccc1)Cc1ccccc1`: the IC50 in experiment [1] came to 0.32 µM.
Turning to `COC(=O)[C@H](Cc1ccc(O)c(O)c1)N(Cc1ccccc1)Cc1ccccc1`, the inhibition result in the experiment with LNCaP [2], in the experiment on CWR22R [3], in the experiment with PNT2 [4], in the experiment with PC-3, in the experiment with PNT2 [6] and in the experiment with LNCaP C4-2B [9] was “Active” each time. Also, the inhibition entry in the experiment on CWR22R [11] was “Active”. Moreover, the values for the IC50 in [5] and in experiment [1] were 0.1 µM and 0.49 µM, respectively. Besides, the inhibition entry in experiment [7] was “Dde”.
As to `COC(=O)[C@H](Cc1ccc(C)cc1)N(Cc1ccccc1)Cc1ccccc1`, the IC50 in [1] was 0.29 µM.
Turning to `COC(=O)[C@H](Cc1ccc(N)cc1)N(Cc1ccccc1)Cc1ccccc1`, the inhibition result with LNCaP [2], in the experiment with CWR22R [3], with PNT2 [4], in the experiment with PC-3, with PNT2 [6] and in the experiment with PNT2 [12] was “Active” throughout. For the same compound, the inhibition result in the experiment on LNCaP [8], with LNCaP C4-2B [9] and in the experiment with CWR22R [11] was “Active” in each case. The values for the IC50 in experiment [5] and in experiment [1] were 0.11 µM and 0.21 µM, respectively. In addition, in experiment [7], the inhibition entry was “Dde”.
Turning to `O=C1[C@H]2Cc3cc(O)c(O)cc3[C@H](c3ccc(F)cc3)N2C(=O)N1c1cccc(C(F)(F)F)c1`, in experiment [1], the half-maximal inhibitory concentration (IC50) came to 2.1 µM.
Same read-out and setting: the value for `O=C(NCc1ccc(F)cc1)[C@@H]1Cc2cc(O)c(O)cc2[C@@H](c2ccc(F)cc2)N1` was 0.85 µM; that for `COC(=O)[C@H](Cc1ccc(Cl)cc1)N(Cc1ccccc1)Cc1ccccc1` was 0.28 µM; that for `O=C1[C@@H]2Cc3cc(O)c(O)cc3[C@@H](c3ccc(F)cc3)N2C(=O)N1Cc1ccc(F)cc1` was 1.7 µM.
The same measure, in the same setting: the value for `O=C(NCc1ccc(F)cc1)[C@@H]1Cc2cc(O)c(O)cc2[C@H](c2ccc(F)cc2)N1` was 17.5 µM; that for `COC(=O)[C@H](Cc1ccc(O)cc1)N(Cc1ccccc1)Cc1ccccc1` was 0.25 µM.
